Patent publication US5079257A, “Indoloquinone compounds” (priority 1986, dated 1992)
≈ marks a conversion by molar mass, not a printed value. Like-named read-outs stand apart in the source and are kept apart here.

Columns and labels:
[1] = system: A 204 cells; rhabdomyosarcoma; experiment: In vitro panel of human tumour lines (TNO): A 204; type: cell-based; conditions: about 72 hours; note: key: -: no inhibition of cell growth; +: total cell-kill
Procedure: (§1) Compounds E.O. 1, E.O. 2, E.O. 4, E.O. 4A, E.O. 8, E.O. 9, […], E.O. 33, and E.O. 35 were tested for their activity against five human tumour cell lines at the Radiobiological Institute TNO Rijswijk.
(§2) The new in vitro prescreen uses human tumour clones; it was set up by Dr. P. Lelieveld at TNO Rijswijk and comprises testing compounds in a bioliquid assay for their cytostatic activity against the following five human tumour lines:
(§3) After a continuous exposure to the drugs to be tested and to Adriamycin in `24 well tissue culture clusters, type 3524 (Costar)`, the remaining cells are fixed and stained. Using increasing drug concentrations the inhibiting concentration can be estimated qualitatively.
(§4) Cells: the human tumour cells are maintained in Dulbecco's medium supplemented with 10 percent foetal calf serum.
(§5) A, T and Z cell suspensions: 5·10^4 cells/ml
(§6) The cells were grafted into 16 mm wells for 48 hours (0.5 ml cell suspension per well was used).
(§7) Drugs: the compound to be tested was dissolved in appropriate concentrations in a mixture of Hepes-buffered Hanks' balanced salt solution and ethanol. The drug solutions (0.05 ml) were added to the different wells. The final ethanol concentration in each well was less than one percent.
(§8) The cells were continuously incubated with the compound under test at 37° in an atmosphere of 10 percent CO2 in humidified air for about 72 hours.
(§9) Determination of the inhibiting dose: the cells were fixed and stained with a solution of crystal violet in methanol/formaldehyde.

[2] = system: MCF7 breast cancer cells; experiment: In vitro panel of human tumour lines (TNO): MCF-7; type: cell-based; conditions: about 72 hours; note: key: -: no inhibition of cell growth; +: total cell-kill
Procedure: as §1, §2, §3, §4
(§10) M and W cell suspensions: 10^5 cells/ml.
as §6, §7, §8, §9

[3] = system: T 24 cells; bladder carcinoma; experiment: In vitro panel of human tumour lines (TNO): T 24; type: cell-based; conditions: about 72 hours; note: key: -: no inhibition of cell growth; +: total cell-kill
Procedure: as §1, §2, §3, §4, §5, §6, §7, §8, §9

[4] = system: WiDr cells; colon tumour; experiment: In vitro panel of human tumour lines (TNO): WiDr; type: cell-based; conditions: about 72 hours; note: key: -: no inhibition of cell growth; +: total cell-kill
Procedure: as §1, §2, §3, §4, §10, §6, §7, §8, §9

[5] = system: IgR37 cells melanoma; experiment: In vitro panel of human tumour lines (TNO): IgR-37; type: cell-based; conditions: about 72 hours; note: key: -: no inhibition of cell growth; +: total cell-kill
Procedure: as §1, §2, §3, §4, §5, §6, §7, §8, §9

[6] = system: R-1 cells (Rhabdomyosarcoma Cells); experiment: R-1 activity (bioliquid assay), cytotoxicity; type: cell-based; conditions: Rhabdomyosarcoma cell, read-out: ID-50 R-1
From the text: The indoloquinones II (formula II) have been tested in respect of their cytotoxic activity against L1210 cells and R-1 cells (Rhabdomyosarcoma Cells) in a bioliquid assay at the department of oncology of the Free University of Amsterdam (Table I). […] (Table II). Eight indoloquinones (E.O. 1, E.O. 2, E.O. 4, E.O. 4A, E.O. 8, E.O. 9, E.O. 33 and E.O. 35) have been tested in a panel of five human tumour lines (TNO Rijswijk; Table III).
For the determination of the R-1 activity, Rhabdomyosarcoma cells were brought into Falcon multiwells (growth area: 9.6 cm^2) (~10^6 cells per dish) containing 3 ml of Dulbecco's medium supplemented with 10% Foeto Calf Serum (FCS). […] Thereupon the drug solution was removed and the cells were covered with fresh medium. After 48 hours the cells were trypsinized and counted on a Sysmex microcell counter (CC110).
(§11) The in vitro L1210 and R-1 activities of the indoloquinones (formula III), were also determined in the bioliquid assays as described above.

[7] = system: L1210 cells; experiment: L1210 activity (bioliquid assay), cytotoxicity; type: cell-based; conditions: for IC50: Mus musculus, read-out: ID-50 L1210; for ID-50 L1210: Table VI, 2880 min
From the text: The indoloquinones II (formula II) have been tested in respect of their cytotoxic activity against L1210 cells and R-1 cells (Rhabdomyosarcoma Cells) in a bioliquid assay at the department of oncology of the Free University of Amsterdam (Table I). In addition to this seven compounds (E.O. 1, E.O. 2, E.O. 4, E.O. 7, E.O. 9, E.O. 16 and E.O. 17) have been tested on L1210 activity in a clonogenic assay at TNO, Rijswijk. Further, the lowest active doses of the compounds E.O. 1, E.O. 2, E.O. 4 and E.O. 9 have been determined at TNO Rijswijk, according to the method described by Lamberts et al. [Oncology, 40, 301 (1983)]. (Table II). Eight indoloquinones (E.O. 1, E.O. 2, E.O. 4, E.O. 4A, E.O. 8, E.O. 9, E.O. 33 and E.O. 35) have been tested in a panel of five human tumour lines (TNO Rijswijk; Table III). From the latter group three indoloquinones (E.O. 1, E.O. 4 and E.O. 9) have been selected for a cytotoxicity study, involving five slowly growing human tumour lines (University of Freiburg; Table IV).
For this purpose, L1210 cells were grown, as suspension, in Falcon multi-wells (growth area: 9.6 cm^2) using RPMI supplemented with 15% FCS and 2-mercapto-ethanol (60 μmol) as medium. In this medium, the cells were continuously incubated with the compound to be tested at 37° C. in an atmosphere of 5% CO2 in humidified air for 48 hours. Thereupon they were counted on a Sysmex microcell counter (CC110).
as §11

[8] = Half-wave reduction potentials / polarography (University of Utrecht); type: physicochemical; conditions: for E1/2, halve wave reduction potential: Table IA, only the first (quinone) reduction potential
From the text: *The halve wave reduction potentials (E1/2) have been determined at the
Pharmaceutical Laboratory of University of Utrecht. Only the first
(quinone) reduction potential has been given.
Additional evidence for the occurrence of a bioreductive activation mechanism during the cytotoxic action of indoloquinones (II) was obtained via electrochemical studies, which have been carried out at the Pharmaceutical Laboratory of the University of Utrecht. […]

[9] = L1210, Table I, bioliquid assay, 48 hours
[10] = Table IA, para-indoloquinone diesters
[11] = L1210, 48 h, Table IA, para-indoloquinone diesters

Compound | IC50 ([6]; Table I, bioliquid assay) [µg/mL] | IC50 ([6]; Table VI) [µg/mL] | IC50 [7, 9] [µg/mL] | half-wave potential E1.2, wave I ([8]; pH = 8 vs Ag/AgCl) [mV] | IC50 [6, 10] [µg/mL] | IC50 [7, 11] [µg/mL] | E1/2, halve wave reduction potential [8] [mV] | also measured
N.N.[Cl][Pt][Cl] [Cisplatin, reference compound] |  |  |  |  |  |  |  | in vitro activity score, A 204 ([1]; 0.01 μg/ml): -; in vitro activity score, A 204 ([1]; 0.1 μg/ml): -; in vitro activity score, A 204 ([1]; 10 μg/ml): +; in vitro activity score, MCF-7 ([2]; 0.01 μg/ml): -; in vitro activity score, MCF-7 ([2]; 0.1 μg/ml): -; in vitro activity score, MCF-7 ([2]; 1.0 μg/ml): -; in vitro activity score, T 24 ([3]; 0.01 μg/ml): -; in vitro activity score, T 24 ([3]; 0.1 μg/ml): -; in vitro activity score, T 24 ([3]; 10 μg/ml): +; in vitro activity score, WiDr ([4]; 0.01 μg/ml): -; in vitro activity score, WiDr ([4]; 0.1 μg/ml): -; in vitro activity score, WiDr ([4]; 1.0 μg/ml): -; in vitro activity score, WiDr ([4]; 10 μg/ml): +; in vitro activity score, IgR-37 ([5]; 0.01 μg/ml): -; in vitro activity score, IgR-37 ([5]; 0.1 μg/ml): -; in vitro activity score, IgR-37 ([5]; 10 μg/ml): +
CC(=O)OC/C=C/c1c(COC(C)=O)c2c(n1C)C(=O)C=C(NCC(O)CO)C2=O (stereo not drawn) [E.O. 6, 3-Acetoxymethyl-5-(2,3-dihydroxypropyl-1-amino)-1-methyl-2-[1H-indole-4,7-dione]prop-β-en-α-yl acetate] | > 10 | > 10 | > 10 | -515 |  |  |  | ID-50 L1210 [7]: > 10 µg/mL; direct current polarogram ([8]; DC-polarography): two or more reduction waves; half-wave potential E1.2, wave III ([8]; pH = 8 vs Ag/AgCl): -600 mV; half-wave potential E1.2, wave IV ([8]; pH = 8 vs Ag/AgCl): -985 mV
Cn1c(/C=C/CO)c(CO)c2c1C(=O)C=C(N1CCC(O)CC1)C2=O [E.O. 11, 3-Hydroxymethyl-5-(4-hydroxypiperidino)-1-methyl-2-[1H-indole-4,7-dione]prop-β-en-α-ol] | > 10 | > 10 | > 10 | -430 |  |  |  | ID-50 L1210 [7]: > 10 µg/mL
Cn1c(/C=C/CO)c(CO)c2c1C(=O)C=C(N1CCOCC1)C2=O [E.O. 12, 3-Hydroxymethyl-1-methyl-5-morpholino-2-[1H-indole-4,7-dione]prop-β-en-α-ol] | > 10 | > 10 | 3.8 (≈ 11.4 µM) | -420 |  |  |  | 
COC(=O)/C=C/c1c(C(=O)OC)c2c(n1C)C(=O)C=C(OC)C2=O [E.O. 14, Methyl 5-methoxy-3-methoxycarbonyl-1-methyl-2-[1H-indole-4,7-dione]acrylate] |  |  |  |  | > 10 | 0.8 (≈ 2.4 µM) | -243 | 
COC(=O)/C=C/c1c(C(=O)OC)c2c(n1C)C(=O)C=C(NCC(O)CO)C2=O (stereo not drawn) [E.O. 23, Methyl 5-(2,3-dihydroxypropyl-1-amino)-3-methoxycarbonyl-1-methyl-2-[1H-indole-4,7-dione]acrylate] |  |  |  |  | > 10 | > 10 | -343 | 
COC(=O)/C=C/c1c(C(=O)OC)c2c(n1C)C(=O)C=C(O)C2=O [E.O. 24, Methyl 5-hydroxy-3-methoxycarbonyl-1-methyl-2-[1H-indole-4,7-dione]acrylate] |  |  |  |  | > 10 | > 10 | -299 | 
